According to patent US20070142392A1, “Uses of rifamycins” (ActivBiotics, Inc., priority 2005, published 2007):
In brackets after ≈: the same amount, converted by molar mass.

How the values were obtained:
Type in all cases: cell-based
S. aureus = assay: MIC values, S. aureus (Tables 1-4)
E. faecalis = assay: MIC values, E. faecalis (Tables 1-4)
E. coli = assay: MIC values, E. coli (Tables 1-4)
S. pneumo. = assay: MIC values, S. pneumo. (Tables 1-4)
H. flu = tested on: H. flu

| SMILES | MIC S. aureus (S. aureus) [µg/mL] | MIC E. faecalis (E. faecalis) [µg/mL] | MIC E. coli (E. coli) [µg/mL] | MIC S. pneumo. (S. pneumo.) [µg/mL] | MIC H. flu (H. flu) [µg/mL] | MIC F. faecalis (E. faecalis; Table 2) [µg/mL] |
| --- | --- | --- | --- | --- | --- | --- |
| COC1C=COC2(C)Oc3c(C)c(O)c4c(=O)c(c5n(C)c6cc(N7CC(C)NC(C)C7)ccc6nc-5c4c3C2=O)NC(=O)C(C)=CC=CC(C)C(O)C(C)C(O)C(C)C(O)C1C (mixture of isomers) [Compound 97] | 1 | >8 | >8 | 2 | 4 |  |
| COC1C=COC2(C)Oc3c(C)c(O)c4c(=O)c(c5oc6cc(N7CC(C)CC(C)C7)cc(O)c6nc-5c4c3C2=O)NC(=O)C(C)=CC=CC(C)C(O)C(C)C(O)C(C)C(O)C1C (mixture of isomers) [Compound 116] | 0.008 | 1 |  | 0.002 | 0.12 |  |
| COC1C=COC2(C)Oc3c(C)c(O)c4c(=O)c(c5oc6cc(N7CC(C)OC(C)C7)cc(O)c6nc-5c4c3C2=O)NC(=O)C(C)=CC=CC(C)C(O)C(C)C(O)C(C)C(O)C1C (mixture of isomers) [Compound 117] | 0.015 | 0.25 | 8 | 0.002 | 0.25 |  |
| COC1C=COC2(C)Oc3c(C)c(O)c4c(=O)c(c5oc6cc(N7CCC(F)C7)ccc6nc-5c4c3C2=O)NC(=O)C(C)=CC=CC(C)C(O)C(C)C(O)C(C)C(O)C1C (mixture of isomers) [Compound 122] | 0.03 | 0.5 | 4 | 0.015 | 0.06 |  |
| CCOC(=O)NC1CCN(c2cc(O)c3nc4c5c6c7c(C)c(O)c5c(=O)c(c-4oc3c2)NC(=O)/C(C)=C\C=C\[C@H](C)[C@H](O)[C@@H](C)[C@@H](O)[C@@H](C)[C@H](OC(C)=O)[C@H](C)[C@@H](OC)/C=C/O[C@@](C)(O7)C6=O)CC1 [Compound 1] | 0.008 (≈ 0.00824 µM) | 2 (≈ 2.06 µM) | >8 | 0.00025 (≈ 0.000257 µM) | 2 (≈ 2.06 µM) |  |
| COC1C=COC2(C)Oc3c(C)c(O)c4c(=O)c(c5oc6cc(N7CC8C(C7)C8NC(=O)OCC[Si](C)(C)C)cc(O)c6nc-5c4c3C2=O)NC(=O)C(C)=CC=CC(C)C(O)C(C)C(O)C(C)C(OC(C)=O)C1C (stereo not drawn) [Compound 2] | 1 (≈ 0.96 µM) | >8 | >8 | 0.03 (≈ 0.0288 µM) | >8 |  |
| CCOC(=O)NC1CCN(c2cc(O)c3nc4c5c6c7c(C)c(O)c5c(=O)c(c-4oc3c2)NC(=O)/C(C)=C\C=C\[C@H](C)[C@H](O)[C@@H](C)[C@@H](O)[C@@H](C)[C@H](O)[C@H](C)[C@@H](OC)/C=C/O[C@@](C)(O7)C6=O)CC1 [Compound 3] | 0.03 (≈ 0.0323 µM) | 0.12 (≈ 0.129 µM) | 4 (≈ 4.31 µM) | 0.0005 (≈ 0.000538 µM) | 0.25 (≈ 0.269 µM) |  |
| COC1C=COC2(C)Oc3c(C)c(O)c4c(=O)c(c5oc6cc(N7CC8C(N)C8C7)cc(O)c6nc-5c4c3C2=O)NC(=O)C(C)=CC=CC(C)C(O)C(C)C(O)C(C)C(OC(C)=O)C1C (stereo not drawn) [Compound 4] | 0.03 (≈ 0.0334 µM) | 0.5 (≈ 0.557 µM) | >8 | 0.00025 (≈ 0.000279 µM) | 0.25 (≈ 0.279 µM) |  |
| COC1C=COC2(C)Oc3c(C)c(O)c4c(=O)c(c5oc6cc(N7CC8CCCNC8C7)cc(O)c6nc-5c4c3C2=O)NC(=O)C(C)=CC=CC(C)C(O)C(C)C(O)C(C)C(OC(C)=O)C1C (stereo not drawn) [Compound 5] | 0.015 (≈ 0.0162 µM) | 0.5 (≈ 0.541 µM) | 8 (≈ 8.65 µM) | 0.00025 (≈ 0.00027 µM) | 2 (≈ 2.16 µM) |  |
| COC1C=COC2(C)Oc3c(C)c(O)c4c(=O)c(c5oc6cc(N7CC8CCCNC8C7)cc(O)c6nc-5c4c3C2=O)NC(=O)C(C)=CC=CC(C)C(O)C(C)C(O)C(C)C(O)C1C (stereo not drawn) [Compound 7] | 0.12 (≈ 0.136 µM) | 4 (≈ 4.53 µM) | >8 | 0.004 (≈ 0.00453 µM) | 4 (≈ 4.53 µM) |  |
| CO[C@H]1/C=C/O[C@@]2(C)Oc3c(C)c(O)c4c(=O)c(c5oc6cc(N7CCC(N8CCOCC8)CC7)cc(O)c6nc-5c4c3C2=O)NC(=O)/C(C)=C\C=C\[C@H](C)[C@H](O)[C@@H](C)[C@@H](O)[C@@H](C)[C@H](OC(C)=O)[C@@H]1C [Compound 9] | 0.015 (≈ 0.0155 µM) | 2 (≈ 2.06 µM) | 8 (≈ 8.26 µM) | 0.001 (≈ 0.00103 µM) | 2 (≈ 2.06 µM) |  |
| CO[C@H]1/C=C/O[C@@]2(C)Oc3c(C)c(O)c4c(=O)c(c5oc6cc(N7CC8CCC(C7)N8)cc(O)c6nc-5c4c3C2=O)NC(=O)/C(C)=C\C=C\[C@H](C)[C@H](O)[C@@H](C)[C@@H](O)[C@@H](C)[C@H](OC(C)=O)[C@@H]1C [Compound 10] | 0.008 (≈ 0.00878 µM) | 1 (≈ 1.1 µM) | >8 | 0.00012 (≈ 0.000132 µM) | 2 (≈ 2.2 µM) |  |
| CO[C@H]1/C=C/O[C@@]2(C)Oc3c(C)c(O)c4c(=O)c(c5oc6cc(N7CCC(N8CCOCC8)CC7)cc(O)c6nc-5c4c3C2=O)NC(=O)/C(C)=C\C=C\[C@H](C)[C@H](O)[C@@H](C)[C@@H](O)[C@@H](C)[C@H](O)[C@@H]1C [Compound 11] | 0.004 (≈ 0.00431 µM) | 0.25 (≈ 0.27 µM) | 4 (≈ 4.31 µM) | 0.00012 (≈ 0.000129 µM) | 1 (≈ 1.08 µM) |  |
| COC1C=COC2(C)Oc3c(C)c(O)c4c(=O)c(c5oc6cc(N7CC8CCCNC8C7)cc(O)c6nc-5c4c3C2=O)NC(=O)C(C)=CC=CC(C)C(O)C(C)C(O)C(C)C(OC(C)=O)C1C (stereo not drawn) [Compound 12] | 0.004 (≈ 0.00432 µM) | 0.12 (≈ 0.13 µM) | 8 (≈ 8.65 µM) | 0.00025 (≈ 0.00027 µM) | 0.25 (≈ 0.27 µM) |  |
| CO[C@H]1/C=C/O[C@@]2(C)Oc3c(C)c(O)c4c(=O)c(c5oc6cc(N7CCC(NC(=O)OCC(C)C)CC7)cc(O)c6nc-5c4c3C2=O)NC(=O)/C(C)=C\C=C\[C@H](C)[C@H](O)[C@@H](C)[C@@H](O)[C@@H](C)[C@H](OC(C)=O)[C@@H]1C [Compound 13] | 0.008 (≈ 0.00801 µM) | 0.5 (≈ 0.5 µM) | 4 (≈ 4 µM) | 0.00012 (≈ 0.00012 µM) | 2 (≈ 2 µM) |  |
| COC1C=COC2(C)Oc3c(C)c(O)c4c(=O)c(c5oc6cc(N7CC8CCCNC8C7)cc(O)c6nc-5c4c3C2=O)NC(=O)C(C)=CC=CC(C)C(O)C(C)C(O)C(C)C(O)C1C (stereo not drawn) [Compound 15] | 0.03 (≈ 0.034 µM) | 0.25 (≈ 0.283 µM) | >8 | 0.002 (≈ 0.00226 µM) | 1 (≈ 1.13 µM) |  |
| CO[C@H]1/C=C/O[C@@]2(C)Oc3c(C)c(O)c4c(=O)c(c5oc6cc(N7CC8CCC(C7)N8)cc(O)c6nc-5c4c3C2=O)NC(=O)/C(C)=C\C=C\[C@H](C)[C@H](O)[C@@H](C)[C@@H](O)[C@@H](C)[C@H](O)[C@@H]1C [Compound 16] | 0.015 (≈ 0.0173 µM) | 0.12 (≈ 0.138 µM) | 4 (≈ 4.6 µM) | 0.001 (≈ 0.00115 µM) | 0.25 (≈ 0.288 µM) |  |
| CO[C@H]1/C=C/O[C@@]2(C)Oc3c(C)c(O)c4c(=O)c(c5oc6cc(N7CCC(N(C)C)CC7)cc(O)c6nc-5c4c3C2=O)NC(=O)/C(C)=C\C=C\[C@H](C)[C@H](O)[C@@H](C)[C@@H](O)[C@@H](C)[C@H](OC(C)=O)[C@@H]1C [Compound 17] | 0.008 (≈ 0.00863 µM) | 1 (≈ 1.08 µM) | 8 (≈ 8.63 µM) | 0.00012 (≈ 0.000129 µM) | 1 (≈ 1.08 µM) |  |
| CO[C@H]1/C=C/O[C@@]2(C)Oc3c(C)c(O)c4c(=O)c(c5oc6cc(N7CCC(N(C)C)CC7)cc(O)c6nc-5c4c3C2=O)NC(=O)/C(C)=C\C=C\[C@H](C)[C@H](O)[C@@H](C)[C@@H](O)[C@@H](C)[C@H](O)[C@@H]1C [Compound 18] | 0.004 (≈ 0.00452 µM) | 0.12 (≈ 0.136 µM) | 4 (≈ 4.52 µM) | 0.00012 (≈ 0.000136 µM) | 0.5 (≈ 0.565 µM) |  |
| CCOC(=O)NC1CCN(c2ccc3nc4c5c6c7c(C)c(O)c5c(=O)c(c-4n(C)c3c2)NC(=O)/C(C)=C\C=C\[C@H](C)[C@H](O)[C@@H](C)[C@@H](O)[C@@H](C)[C@H](OC(C)=O)[C@H](C)[C@@H](OC)/C=C/O[C@@](C)(O7)C6=O)CC1 [Compound 19] | 0.004 (≈ 0.00413 µM) | 0.06 (≈ 0.062 µM) | 4 (≈ 4.13 µM) | 0.001 (≈ 0.00103 µM) | 0.25 (≈ 0.258 µM) |  |
| CO[C@H]1/C=C/O[C@@]2(C)Oc3c(C)c(O)c4c(=O)c(c5oc6c7c(cc(O)c6nc-5c4c3C2=O)N(Cc2ccccc2)CCN7Cc2ccccc2)NC(=O)/C(C)=C\C=C\[C@H](C)[C@H](O)[C@@H](C)[C@@H](O)[C@@H](C)[C@H](OC(C)=O)[C@@H]1C [Compound 85] | 2 (≈ 1.93 µM) |  | >8 |  | >8 | 8 (≈ 7.71 µM) |
| CO[C@H]1/C=C/O[C@@]2(C)Oc3c(C)c(O)c4c(=O)c(c5oc6cc(N7CCN(c8ccccc8)CC7)cc(O)c6nc-5c4c3C2=O)NC(=O)/C(C)=C\C=C\[C@H](C)[C@H](O)[C@@H](C)[C@@H](O)[C@@H](C)[C@H](O)[C@@H]1C [Compound 102] | 0.004 (≈ 0.00435 µM) | 0.06 (≈ 0.0653 µM) | 4 (≈ 4.35 µM) |  | 0.25 (≈ 0.272 µM) |  |
| CO[C@H]1/C=C/O[C@@]2(C)Oc3c(C)c(O)c4c(=O)c(c5oc6c(F)cc(F)cc6nc-5c4c3C2=O)NC(=O)/C(C)=C\C=C\[C@H](C)[C@H](O)[C@@H](C)[C@@H](O)[C@@H](C)[C@H](O)[C@@H]1C [Compound 137] | 0.12 (≈ 0.154 µM) | 1 (≈ 1.28 µM) | >8 |  | 2 (≈ 2.57 µM) |  |
